Reference: patent US10253007B2, “Taxanes compounds, preparation method therefor, and uses thereof” (Jiangsu Tasly Diyi Pharmaceutical Co., Ltd., priority 2013, dated 2019)

Legend:
[1] = test system: breast cancer cell line MCF-7; experiment: IC50 values on breast cancer cell line MCF-7; type: cell-based; conditions: Homo sapiens, MCF7, 72 h, read-out: MCF-7(IC50, nM)
Excerpt: From the activity evaluation data of the above-mentioned preliminary screen, it can be seen that the series of taxanes derivatives synthesized in the present invention have activity (although the activity of PCMI-43 is weakened). Afterward, most of the compounds are picked up from these derivatives to examine their IC50 values on breast cancer cell line MCF-7. Paclitaxel is used as the positive control drug. Experiments for each compound were independently repeated for three times and multiple holes were used in each experiment. The exposure time of drugs was 72 hours.

B16 melanoma = experiment: MTT assay, proliferation inhibition; type: cell-based; conditions: read-out: Proliferation inhibition rate
Excerpt: (§1) 1. Cytotoxicity Assay Using Human Tumor Cell Lines
(§2) Paclitaxel was used as the positive drug.

HeLa cervical cancer = experiment: MTT assay, proliferation inhibition; type: cell-based; conditions: Homo sapiens, read-out: Proliferation inhibition rate
Excerpt: as §1, §2

HL60 leukemia = experiment: MTT assay, proliferation inhibition; type: cell-based; conditions: Homo sapiens, HL-60, read-out: Proliferation inhibition rate
Excerpt: as §1, §2

A2780 ovarian cancer = experiment: MTT assay, proliferation inhibition; type: cell-based; conditions: Homo sapiens, read-out: Proliferation inhibition rate
Excerpt: as §1, §2

A375 melanoma = experiment: MTT assay, proliferation inhibition; type: cell-based; conditions: Homo sapiens, A-375, read-out: Proliferation inhibition rate
Excerpt: as §1, §2

MCF-7 breast cancer = experiment: MTT assay, proliferation inhibition; type: cell-based; conditions: Homo sapiens, MCF7, read-out: Proliferation inhibition rate
Excerpt: as §1, §2

LNCaP prostate cancer = experiment: MTT assay, proliferation inhibition; type: cell-based; conditions: Homo sapiens, read-out: Proliferation inhibition rate
Excerpt: as §1, §2

[2] = test system: NCI-H460 non-small cell lung cancer; experiment: MTT assay, proliferation inhibition; type: cell-based; conditions: Homo sapiens, read-out: Proliferation inhibition rate
Excerpt: as §1, §2

HCT 116 colon cancer = experiment: MTT assay, proliferation inhibition; type: cell-based; conditions: Homo sapiens, read-out: Proliferation inhibition rate
Excerpt: as §1, §2

BGC-823 gastric cancer = experiment: MTT assay, proliferation inhibition; type: cell-based; conditions: Homo sapiens, read-out: Proliferation inhibition rate
Excerpt: as §1, §2

HT29 colon cancer = experiment: MTT assay, proliferation inhibition; type: cell-based; conditions: Homo sapiens, HT-29, read-out: Proliferation inhibition rate
Excerpt: as §1, §2

MDA-MB-436 breast cancer = experiment: MTT assay, proliferation inhibition; type: cell-based; conditions: Homo sapiens, read-out: Proliferation inhibition rate
Excerpt: as §1, §2

K562 leukemia = experiment: MTT assay, proliferation inhibition; type: cell-based; conditions: Homo sapiens, read-out: Proliferation inhibition rate
Excerpt: as §1, §2

DU145 prostate cancer = experiment: MTT assay, proliferation inhibition; type: cell-based; conditions: Homo sapiens, DU-145, read-out: Proliferation inhibition rate
Excerpt: as §1, §2

[3] = MTT assay, proliferation inhibition; type: cell-based; conditions: Homo sapiens, LN-18 gastric cancer, read-out: Proliferation inhibition rate
Excerpt: as §1, §2

[4] = test system: A549 non-small cell lung cancer; experiment: MTT assay, proliferation inhibition; type: cell-based; conditions: Homo sapiens, read-out: Proliferation inhibition rate
Excerpt: as §1, §2

[5] = Caco-2 cell monolayer membrane transport assay; conditions: human; for recovery: Caco-2, Recovery rate in mass
Excerpt: (§3) Caco-2 Cell Monolayer Membrane Transport Assay
(§4) Human-derived colorectal adenocarcinoma cell line Caco-2 cell monolayer model was used to study the bidirectional transport of the target compounds from the apical (AP) side to the basolateral (BL) side and from BL side to AP side. HPLC was used for quantitative analysis to calculate transport parameters, apparent permeability coefficient (Papp) and the efflux ratio.

Caco-2 cell monolayer = Caco-2 cell monolayer membrane transport assay
Excerpt: as §3, §4

[6] = Caco-2, Papp A-B, Caco-2 cell line (21 days), bidirectional transport, Table 5
[7] = Caco-2, Papp A-B, Mean, Caco-2, A-B, mean of two samples
[8] = Caco-2, Papp A-B, Sample-01, Caco-2, A-B, Sample-01
[9] = Caco-2, Papp A-B, Sample-02, Caco-2, A-B, Sample-02
[10] = Mean, Caco-2, A-B, mean of two samples
[11] = Sample-01, Caco-2, A-B, Sample-01
[12] = Sample-02, Caco-2, A-B, Sample-02
[13] = Caco-2 cell line (21 days), bidirectional transport, Table 5

| SMILES | IC50 [1] [nM] | inhibition at 1 µM (B16 melanoma) [%] | inhibition at 1 µM (HeLa cervical cancer) [%] | inhibition at 1 µM (HL60 leukemia) [%] | inhibition at 1 µM (A2780 ovarian cancer) [%] | inhibition at 1 µM (A375 melanoma) [%] | inhibition at 1 µM (MCF-7 breast cancer) [%] | inhibition at 1 µM (LNCaP prostate cancer) [%] | inhibition at 1 µM [2] [%] | inhibition at 1 µM (HCT 116 colon cancer) [%] | inhibition at 1 µM (BGC-823 gastric cancer) [%] | inhibition at 1 µM (HT29 colon cancer) [%] | inhibition at 1 µM (MDA-MB-436 breast cancer) [%] | inhibition at 1 µM (K562 leukemia) [%] | inhibition at 1 µM (DU145 prostate cancer) [%] | inhibition at 1 µM [3] [%] | inhibition at 1 µM [4] [%] | Papp A→B [5, 8] [×10⁻⁶ cm/s] | Papp A→B [5, 9] [×10⁻⁶ cm/s] | recovery [5, 10] [%] | also measured |
| --- | --- | --- | --- | --- | --- | --- | --- | --- | --- | --- | --- | --- | --- | --- | --- | --- | --- | --- | --- | --- | --- |
| CO[C@H]1C(=O)[C@]2(C)[C@@H](OC(=O)N(C)C)C[C@H]3OC[C@@]3(OC(C)=O)[C@H]2[C@H](OC(=O)c2ccccc2)[C@]2(O)C[C@H](OC(=O)[C@H](O)[C@H](CC(C)C)NC(=O)OC(C)(C)C)C(C)=C1C2(C)C [PCMI-34] | 13.26 ± 0.12 | 81.4 | 102 | 98.1 | 95 | 104 | 101 | 88.7 | 86.2 | 60.1 | 94.7 | 89.2 | 81.2 | 92.9 | 86.9 | 90.6 | 73.5 | 11.8 | 9.54 | 67.4 | Papp B→A ([5]; Caco-2): 30.9 ×10⁻⁶ cm/s; efflux ratio ([5]; Caco-2): 1.59; Papp A→B [5, 6]: 19.4 ×10⁻⁶ cm/s; Papp A→B [5, 7]: 10.7 ×10⁻⁶ cm/s; Papp A→B ([5]; Caco-2, Papp A-to-B, Caco-2): > 10 ×10⁻⁶ cm/s; recovery [5, 11]: 71.2%; recovery [5, 12]: 63.6%; membrane permeability (in words) (Caco-2 cell monolayer; Caco-2 monolayer): highly permeable substrates |
| COC(=O)O[C@H]1C[C@H]2OC[C@@]2(OC(C)=O)[C@H]2[C@H](OC(=O)c3ccccc3)[C@]3(O)C[C@H](OC(=O)[C@H](O)[C@H](CC(C)C)NC(=O)OC(C)(C)C)C(C)=C([C@@H](OC)C(=O)[C@]12C)C3(C)C [PCMI-39] | 2.81 ± 0.02 | 72.3 | 100 | 99.1 | 94.9 | 90.2 | 100 | 82.8 | 81.6 | 57.1 | 91.7 | 88.4 | 78.4 | 92.2 | 84.9 | 94.1 | 67.4 | 6.13 | 8.81 | 64.2 | Papp A→B [5, 7]: 7.47 ×10⁻⁶ cm/s; recovery [5, 11]: 71.7%; recovery [5, 12]: 56.7%; Papp A-B (Caco-2 cell monolayer; [13]): 7.16 10^−6 cm/s; Papp B-A (Caco-2 cell monolayer; [13]): 36.37 10^−6 cm/s |
| CO[C@H]1C(=O)[C@]2(C)CC[C@H]3OC[C@@]3(OC(C)=O)[C@H]2[C@H](OC(=O)c2ccccc2)[C@]2(O)C[C@H](OC(=O)[C@H](O)[C@H](CC(C)C)NC(=O)OC(C)(C)C)C(C)=C1C2(C)C [PCMI-42] | 3.06 ± 0.08 | 78.3 | 99.3 | 97.6 | 95.6 | 104 | 97.8 | 82.9 | 84.3 | 66.1 | 92.8 | 88.2 | 79.5 | 94.3 | 87 | 94.8 | 77.6 | 7.85 | 6.49 | 74.2 | Papp A→B [5, 6]: 7.54 ×10⁻⁶ cm/s; recovery [5, 11]: 81%; recovery [5, 12]: 67.3%; efflux ratio (Caco-2 cell monolayer; Caco-2 cell line (21 days), Papp B-A/Papp A-B): 5.12; Papp B-A (Caco-2 cell monolayer; [13]): 38.57 10^−6 cm/s |
